# Assay: Phase I trial, combination with carboplatin: adverse events and DLTs
# Assay type: in vivo, human
# Procedure: Pts with advanced solid tumors enrolled in 2 sequential parts.
# In part A, single pt cohorts received a compound of Formula A-2 once weekly in 21-day cycles with 3+3 dose escalation cohorts being implemented if grade 2 drug-related adverse events (AEs) occurred. […] If a DLT was reported, the cohort was expanded to include 3 additional pts with subsequent dose escalation being permitted if no further DLTs occurred. Paired pre- and post-treatment biopsies from selected pts in part B were assessed for pCHK1 levels by immunohistochemistry. Models based on preclinical and clinical data were used to simulate hematologic toxicities and pCHK1 inhibition for pts treated with a compound of Formula A-2 and CP.
# [1] = A-2 90 mg/m2 + Carboplatin AUC 5 (n = 3)
# [2] = A-2 90 mg/m^2 + Carboplatin AUC5 (N = 6)
# [3] = A-2 120 mg/m2 + Carboplatin AUC 4 (n = 3)
# [4] = A-2 120 mg/m2 + Carboplatin AUC 5 (n = 3)
# [5] = A-2 120 mg/m^2 + Carboplatin AUC4 (N = 3)
smiles,measurement,setting,value
CNCc1ccc(-c2cc(-c3nc(-c4ccc(S(=O)(=O)C(C)C)cc4)cnc3N)on2)cc1 [Compound A-2],"Treatment related adverse event: Alopecia, All Grades",[1],2 (20.0) n (%)
same,"Treatment related adverse event: Alopecia, Grade ≥ 3",[1],0 n (%)
same,"Treatment related adverse event: Anemia, All Grades",[1],4 (40.0) n (%)
same,"Treatment related adverse event: Anemia, Grade ≥ 3",[1],0 n (%)
same,"Treatment related adverse event: Any Event, All Grades",[1],9 (90.0) n (%)
same,"Treatment related adverse event: Any Event, Grade ≥ 3",[1],1 (10.0) n (%)
same,"Treatment related adverse event: Fatigue, All Grades",[1],4 (40.0) n (%)
same,"Treatment related adverse event: Fatigue, Grade ≥ 3",[1],0 n (%)
same,"Treatment related adverse event: Flushing, All Grades",[1],1 (10.0) n (%)
same,"Treatment related adverse event: Flushing, Grade ≥ 3",[1],0 n (%)
same,"Treatment related adverse event: Headache, All Grades",[1],0 n (%)
same,"Treatment related adverse event: Headache, Grade ≥ 3",[1],0 n (%)
same,"Treatment related adverse event: Hypersensitivity, All Grades",[1],0 n (%)
same,"Treatment related adverse event: Hypersensitivity, Grade ≥ 3",[1],0 n (%)
same,"Treatment related adverse event: Infusion related reaction, All Grades",[1],1 (10.0) n (%)
same,"Treatment related adverse event: Infusion related reaction, Grade ≥ 3",[1],0 n (%)
same,"Treatment related adverse event: Nausea, All Grades",[1],3 (30.0) n (%)
same,"Treatment related adverse event: Nausea, Grade ≥ 3",[1],0 n (%)
same,"Treatment related adverse event: Neuropathy peripheral, All Grades",[1],0 n (%)
same,"Treatment related adverse event: Neuropathy peripheral, Grade ≥ 3",[1],0 n (%)
same,"Treatment related adverse event: Neutropenia, All Grades",[1],3 (30.0) n (%)
same,"Treatment related adverse event: Neutropenia, Grade ≥ 3",[1],1 (10.0) n (%)
same,"Treatment related adverse event: Pruritus, All Grades",[1],1 (10.0) n (%)
same,"Treatment related adverse event: Pruritus, Grade ≥ 3",[1],0 n (%)
same,"Treatment related adverse event: Thrombocytopenia, All Grades",[1],2 (20.0) n (%)
same,"Treatment related adverse event: Thrombocytopenia, Grade ≥ 3",[1],0 n (%)
same,"Treatment related adverse event: Vomiting, All Grades",[1],0 n (%)
same,"Treatment related adverse event: Vomiting, Grade ≥ 3",[1],0 n (%)
same,"Treatment related adverse event: Alopecia, All",[2],2
same,"Treatment related adverse event: Alopecia, ≥3",[2],0
same,"Treatment related adverse event: Anemia, All",[2],3
same,"Treatment related adverse event: Anemia, ≥3",[2],0
same,"Treatment related adverse event: Fatigue, All",[2],3
same,"Treatment related adverse event: Fatigue, ≥3",[2],0
same,"Treatment related adverse event: Flushing, All",[2],0
same,"Treatment related adverse event: Flushing, ≥3",[2],0
same,"Treatment related adverse event: Headache, All",[2],0
same,"Treatment related adverse event: Headache, ≥3",[2],0
same,"Treatment related adverse event: Hypertension, All",[2],0
same,"Treatment related adverse event: Hypertension, ≥3",[2],0
same,"Treatment related adverse event: Nausea, All",[2],1
same,"Treatment related adverse event: Nausea, ≥3",[2],0
same,"Treatment related adverse event: Neuropathy peripheral, All",[2],0
same,"Treatment related adverse event: Neuropathy peripheral, ≥3",[2],0
same,"Treatment related adverse event: Neutropenia, All",[2],2
same,"Treatment related adverse event: Neutropenia, ≥3",[2],1
same,"Treatment related adverse event: Respiratory tract infection, ≥3",[2],0
same,"Treatment related adverse event: Thrombocytopenia, All",[2],2
same,"Treatment related adverse event: Thrombocytopenia, ≥3",[2],0
same,"Treatment related adverse event: Vomiting, All",[2],0
same,"Treatment related adverse event: Vomiting, ≥3",[2],0
same,"Treatment related adverse event: Alopecia, All Grades",[3],0 n (%)
same,"Treatment related adverse event: Alopecia, Grade ≥ 3",[3],0 n (%)
same,"Treatment related adverse event: Anemia, All Grades",[3],1 (33.3) n (%)
same,"Treatment related adverse event: Anemia, Grade ≥ 3",[3],0 n (%)
same,"Treatment related adverse event: Any Event, Grade ≥ 3",[3],0 n (%)
same,"Treatment related adverse event: Fatigue, All Grades",[3],0 n (%)
same,"Treatment related adverse event: Fatigue, Grade ≥ 3",[3],0 n (%)
same,"Treatment related adverse event: Flushing, All Grades",[3],1 (33.3) n (%)
same,"Treatment related adverse event: Flushing, Grade ≥ 3",[3],0 n (%)
same,"Treatment related adverse event: Headache, All Grades",[3],0 n (%)
same,"Treatment related adverse event: Headache, Grade ≥ 3",[3],0 n (%)
same,"Treatment related adverse event: Hypersensitivity, All Grades",[3],0 n (%)
same,"Treatment related adverse event: Hypersensitivity, Grade ≥ 3",[3],0 n (%)
same,"Treatment related adverse event: Infusion related reaction, All Grades",[3],0 n (%)
same,"Treatment related adverse event: Infusion related reaction, Grade ≥ 3",[3],0 n (%)
same,"Treatment related adverse event: Nausea, All Grades",[3],1 (33.3) n (%)
same,"Treatment related adverse event: Nausea, Grade ≥ 3",[3],0 n (%)
same,"Treatment related adverse event: Neuropathy peripheral, All Grades",[3],0 n (%)
same,"Treatment related adverse event: Neuropathy peripheral, Grade ≥ 3",[3],0 n (%)
same,"Treatment related adverse event: Neutropenia, All Grades",[3],0 n (%)
same,"Treatment related adverse event: Neutropenia, Grade ≥ 3",[3],0 n (%)
same,"Treatment related adverse event: Pruritus, All Grades",[3],1 (33.3) n (%)
same,"Treatment related adverse event: Pruritus, Grade ≥ 3",[3],0 n (%)
same,"Treatment related adverse event: Thrombocytopenia, All Grades",[3],1 (33.3) n (%)
same,"Treatment related adverse event: Thrombocytopenia, Grade ≥ 3",[3],0 n (%)
same,"Treatment related adverse event: Vomiting, All Grades",[3],0 n (%)
same,"Treatment related adverse event: Vomiting, Grade ≥ 3",[3],0 n (%)
same,"Treatment related adverse event: Alopecia, All Grades",[4],0 n (%)
same,"Treatment related adverse event: Alopecia, Grade ≥ 3",[4],0 n (%)
same,"Treatment related adverse event: Anemia, Grade ≥ 3",[4],0 n (%)
same,"Treatment related adverse event: Any Event, All Grades",[4],3 (100) n (%)
same,"Treatment related adverse event: Fatigue, All Grades",[4],1 (33.3) n (%)
same,"Treatment related adverse event: Fatigue, Grade ≥ 3",[4],0 n (%)
same,"Treatment related adverse event: Flushing, All Grades",[4],0 n (%)
same,"Treatment related adverse event: Flushing, Grade ≥ 3",[4],0 n (%)
same,"Treatment related adverse event: Headache, All Grades",[4],0 n (%)
same,"Treatment related adverse event: Headache, Grade ≥ 3",[4],0 n (%)
same,"Treatment related adverse event: Hypersensitivity, All Grades",[4],1 (33.3) n (%)
same,"Treatment related adverse event: Hypersensitivity, Grade ≥ 3",[4],1 (33.3) n (%)
same,"Treatment related adverse event: Infusion related reaction, All Grades",[4],1 (33.3) n (%)
same,"Treatment related adverse event: Infusion related reaction, Grade ≥ 3",[4],0 n (%)
same,"Treatment related adverse event: Nausea, Grade ≥ 3",[4],0 n (%)
same,"Treatment related adverse event: Neuropathy peripheral, All Grades",[4],0 n (%)
same,"Treatment related adverse event: Neuropathy peripheral, Grade ≥ 3",[4],0 n (%)
same,"Treatment related adverse event: Neutropenia, Grade ≥ 3",[4],1 (33.3) n (%)
same,"Treatment related adverse event: Pruritus, All Grades",[4],0 n (%)
same,"Treatment related adverse event: Pruritus, Grade ≥ 3",[4],0 n (%)
same,"Treatment related adverse event: Thrombocytopenia, All Grades",[4],1 (33.3) n (%)
same,"Treatment related adverse event: Thrombocytopenia, Grade ≥ 3",[4],0 n (%)
same,"Treatment related adverse event: Vomiting, All Grades",[4],0 n (%)
same,"Treatment related adverse event: Vomiting, Grade ≥ 3",[4],0 n (%)
same,"Treatment related adverse event: Alopecia, All",[5],0
same,"Treatment related adverse event: Alopecia, ≥3",[5],0
same,"Treatment related adverse event: Anemia, All",[5],1
same,"Treatment related adverse event: Anemia, ≥3",[5],0
same,"Treatment related adverse event: Fatigue, All",[5],0
same,"Treatment related adverse event: Fatigue, ≥3",[5],0
same,"Treatment related adverse event: Flushing, All",[5],1
same,"Treatment related adverse event: Flushing, ≥3",[5],0
same,"Treatment related adverse event: Headache, All",[5],0
same,"Treatment related adverse event: Headache, ≥3",[5],0
same,"Treatment related adverse event: Hypertension, All",[5],0
same,"Treatment related adverse event: Hypertension, ≥3",[5],0
same,"Treatment related adverse event: Nausea, All",[5],1
same,"Treatment related adverse event: Nausea, ≥3",[5],0
same,"Treatment related adverse event: Neuropathy peripheral, All",[5],0
same,"Treatment related adverse event: Neuropathy peripheral, ≥3",[5],0
same,"Treatment related adverse event: Neutropenia, All",[5],0
same,"Treatment related adverse event: Neutropenia, ≥3",[5],0
same,"Treatment related adverse event: Respiratory tract infection, All",[5],0
same,"Treatment related adverse event: Respiratory tract infection, ≥3",[5],0
same,"Treatment related adverse event: Thrombocytopenia, All",[5],1
same,"Treatment related adverse event: Thrombocytopenia, ≥3",[5],0

# Reference: patent US20230106592A1, “METHOD FOR TREATING CANCER USING A COMBINATION OF DNA DAMAGING AGENTS AND ATR INHIBITORS” (Vertex Pharmaceuticals Incorporated, priority 2015, published 2023)
